Measurements taken from patent US10323027B2, “2,3-dihydro-4H-1,3-benzoxazin-4-one derivatives as modulators of cholinergic muscarinic M1 receptor” (Takeda Pharmaceutical Company Limited, priority 2015, dated 2019).
Counter-ions that a name gives are not always drawn.

Target: T1, human M1 receptor (hCHRM1) (Homo sapiens, UniProt P11229)
T1 construct: expressed in transfected cells
T1 sequence (P11229 1-460): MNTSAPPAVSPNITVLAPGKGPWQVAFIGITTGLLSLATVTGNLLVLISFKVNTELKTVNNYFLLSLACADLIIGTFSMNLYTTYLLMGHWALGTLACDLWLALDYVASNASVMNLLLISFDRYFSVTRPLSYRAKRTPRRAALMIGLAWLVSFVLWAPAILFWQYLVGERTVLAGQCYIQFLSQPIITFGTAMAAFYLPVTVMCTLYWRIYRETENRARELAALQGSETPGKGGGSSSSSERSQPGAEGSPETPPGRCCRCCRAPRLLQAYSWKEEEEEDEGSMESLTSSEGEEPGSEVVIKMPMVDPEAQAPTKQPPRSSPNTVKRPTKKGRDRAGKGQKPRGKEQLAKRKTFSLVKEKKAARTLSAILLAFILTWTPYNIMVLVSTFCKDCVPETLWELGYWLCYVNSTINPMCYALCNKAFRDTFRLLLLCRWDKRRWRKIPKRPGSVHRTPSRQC
Experiment: Measurement of M1 receptor positive allosteric modulator (M1PAM) activity, Ca2+ fluorescence by FLIPRtetra (Experimental Example 1)
Format: cell-based
Conditions: for activity (%) at 10 μM: 10 μM test compound, 100% = acetylcholine 1 μM, 0% = DMSO; for EC50: inflection point of concentration-dependent curve, in presence of acetylcholine at EC20 (0.8-1.0 nM), CHO-K1 cells expressing hCHRM1, read-out: IP value
Method: Measurement of M1 Receptor Positive Allosteric Modulator (M1PAM) Activity
The activity of a test compound in the presence of acetylcholine at EC20 concentration (final concentration 0.8-1.0 nM), which affords an action corresponding to about 20% of the maximum activity, was measured as PAM activity. The method is as follows. CHO-K1 cells stably expressing a human M1 receptor (hCHRM1) were plated on a 384-well black clear bottom plate (BD Falcon) at 5,000 cells/well, and cultured in an incubator at 37° C., 5% CO2 for 1 day. The medium in the cell plate was removed, and a dye solution (prepared by adding Recording medium (DOJINDO LABORATORIES) to a final concentration of 1×concentration, Fluo-4 AM (DOJINDO LABORATORIES) to a final concentration of 2.5 μg/mL, Pluronic F127 (DOJINDO LABORATORIES) to a final concentration of 0.08%, and probenecid (DOJINDO LABORATORIES) to a final concentration of 1.25 mM to assay buffer (HBSS (Invitrogen), 20 mM HEPES (Invitrogen), 0.1% BSA (Wako Pure Chemical Industries, Ltd.))) was added at 30 μL/well. The cells were left standing in the incubator at 37° C., 5% CO2 for 30 min, and further left standing at room temperature for 30 min. A test compound prepared by diluting with assay buffer containing 3.2-4.0 nM acetylcholine was added at 10 μL/well, and the fluorescence was measured by FLIPRtetra (Molecular Devices) for 1 min every 1 second. With the definition that the amount of change in the fluorescence on addition of acetylcholine (final concentration 1 μM) is 100% and that on addition of DMSO instead of a test compound is 0%, the activity (%) of the test compound was calculated, and the inflection point in the concentration-dependent curve of the test compound was calculated as IP values.

activity (%) at 10 μM [%] | EC50 [nM] | activity (%) at 10 μM (monohydrochloride) [%] | SMILES
95 | 8.5 |  | Cc1ccc(Cc2cc3c(c(C)c2C)OCN([C@H]2CCC[C@@H]2O)C3=O)cn1 [Example 11, 3-((1S,2S)-2-hydroxycyclopentyl)-7,8-dimethyl-6-((6-methylpyridin-3-yl)methyl)-2,3-dihydro-4H-1,3-benzoxazin-4-one]
89 | 15 |  | Cc1c(Cc2ccc(C#N)cc2)cc2c(c1F)OCN([C@H]1CCC[C@@H]1O)C2=O [Example 12, 4-((8-fluoro-3-((1S,2S)-2-hydroxycyclopentyl)-7-methyl-4-oxo-3,4-dihydro-2H-1,3-benzoxazin-6-yl)methyl)benzonitrile]
106 | 15 |  | Cc1cc2c(cc1Cc1ccc(-n3cccn3)nc1)C(=O)N([C@H]1CCC[C@@H]1O)CO2 [Example 14, 3-((1S,2S)-2-hydroxycyclopentyl)-7-methyl-6-((6-(1H-pyrazol-1-yl)pyridin-3-yl)methyl)-2,3-dihydro-4H-1,3-benzoxazin-4-one]
102 | 20 |  | Cc1c(Cc2ccc(Cl)nc2)cc2c(c1F)OCN([C@H]1CCC[C@@H]1O)C2=O [Example 16, 6-((6-chloropyridin-3-yl)methyl)-8-fluoro-3-((1S,2S)-2-hydroxycyclopentyl)-7-methyl-2,3-dihydro-4H-1,3-benzoxazin-4-one]
107 | 37 |  | COc1ccc(Cc2cc3c(c(F)c2C)OCN([C@H]2CCC[C@@H]2O)C3=O)cn1 [Example 18, 8-fluoro-3-((1S,2S)-2-hydroxycyclopentyl)-6-((6-methoxypyridin-3-yl)methyl)-7-methyl-2,3-dihydro-4H-1,3-benzoxazin-4-one]
105 | 45 |  | Cc1c(Cc2ccc(Cl)nc2)cc2c(c1F)OCN([C@H]1COCC[C@@H]1O)C2=O [Example 19, 1,5-anhydro-2-(6-((6-chloropyridin-3-yl)methyl)-8-fluoro-7-methyl-4-oxo-2H-1,3-benzoxazin-3(4H)-yl)-2,4-dideoxy-L-threo-pentitol]
85 | 24 |  | Cc1ccc(Cc2cc3c(c(F)c2C)OCN([C@H]2CCC[C@@H]2O)C3=O)cn1 [Example 20, 8-fluoro-3-((1S,2S)-2-hydroxycyclopentyl)-7-methyl-6-((6-methylpyridin-3-yl)methyl)-2,3-dihydro-4H-1,3-benzoxazin-4-one]
95 | 16 |  | O=C1c2cc(CN3CCC(F)(F)CC3)c3ccccc3c2OCN1[C@H]1CCC[C@@H]1O [Example 21, 6-((4,4-difluoropiperidin-1-yl)methyl)-3-((1S,2S)-2-hydroxycyclopentyl)-2,3-dihydro-4H-naphtho[2,1-e][1,3]oxazin-4-one]
105 | 0.69 |  | Cc1c(Cc2ccc(-c3ccn(C)n3)nc2)cc2c(c1F)OCN([C@H]1CCC[C@@H]1O)C2=O [Example 22, 8-fluoro-3-((1S,2S)-2-hydroxycyclopentyl)-7-methyl-6-((6-(1-methyl-1H-pyrazol-3-yl)pyridin-3-yl)methyl)-2,3-dihydro-4H-1,3-benzoxazin-4-one]
114 | 2 |  | Cc1c(Cc2ccc(-n3cccn3)cc2)cc2c(c1C)OCN([C@H]1COCC[C@@H]1O)C2=O [Example 23, 3-[(3S,4S)-4-hydroxytetrahydro-2H-pyran-3-yl]-7,8-dimethyl-6-[4-(1H-pyrazol-1-yl)benzyl]-2,3-dihydro-4H-1,3-benzoxazin-4-one]
101 | 4.2 |  | Cc1ccc(Cc2cc3c(c(Cl)c2C)OCN([C@H]2CCC[C@@H]2O)C3=O)cn1 [Example 25, 8-chloro-3-((1S,2S)-2-hydroxycyclopentyl)-7-methyl-6-((6-methylpyridin-3-yl)methyl)-2,3-dihydro-4H-1,3-benzoxazin-4-one]
 | 5.4 | 119 | Cc1ccc(Cc2cc3c(c(C)c2C)OCN([C@H]2CCC[C@@H]2O)C3=O)cn1 [Example 26, 3-((1S,2S)-2-hydroxycyclopentyl)-7,8-dimethyl-6-((6-methylpyridin-3-yl)methyl)-2,3-dihydro-4H-1,3-benzoxazin-4-one monohydrochloride]
105 | 6 |  | Cc1ccc(Cc2cc3c(c(F)c2C)OCN([C@H]2CCCC[C@@H]2O)C3=O)cn1 [Example 27, 8-fluoro-3-((1S,2S)-2-hydroxycyclohexyl)-7-methyl-6-((6-methylpyridin-3-yl)methyl)-2,3-dihydro-4H-1,3-benzoxazin-4-one]
106 | 14 |  | COc1ccc(Cc2cc3c(c(C)c2C)OCN([C@H]2COCC[C@@H]2O)C3=O)cn1 [Example 29, 3-((3S,4S)-4-hydroxytetrahydro-2H-pyran-3-yl)-6-((6-methoxypyridin-3-yl)methyl)-7,8-dimethyl-2,3-dihydro-4H-1,3-benzoxazin-4-one]
108 | 37 |  | Cc1ccc(Cc2cc3c(c(F)c2C)OCN([C@H]2COCC[C@@H]2O)C3=O)cn1 [Example 32, 1,5-anhydro-2,4-dideoxy-2-(8-fluoro-7-methyl-6-((6-methylpyridin-3-yl)methyl)-4-oxo-2H-1,3-benzoxazin-3(4H)-yl)-L-threo-pentitol]
96 | 53 |  | Cc1cc2c(cc1Cc1ccc(Cl)nc1)C(=O)N([C@H]1CCC[C@@H]1O)CO2 [Example 34, 6-((6-chloropyridin-3-yl)methyl)-3-((1S,2S)-2-hydroxycyclopentyl)-7-methyl-2,3-dihydro-4H-1,3-benzoxazin-4-one]
109 | 5.8 |  | Cc1cc2c(cc1Cc1ccc(-n3cccn3)cc1)C(=O)N([C@H]1CCC[C@@H]1O)CO2 [Example 35, 3-((1S,2S)-2-hydroxycyclopentyl)-7-methyl-6-(4-(1H-pyrazol-1-yl)benzyl)-2,3-dihydro-4H-1,3-benzoxazin-4-one]
109 | 1.2 |  | Cc1c(Cc2ccc(-c3ccn(C)n3)nc2)cc2c(c1C)OCN([C@H]1COCC[C@@H]1O)C2=O [Example 37, 1,5-anhydro-2,4-dideoxy-2-(7,8-dimethyl-6-((6-(1-methyl-1H-pyrazol-3-yl)pyridin-3-yl)methyl)-4-oxo-2H-1,3-benzoxazin-3(4H)-yl)-L-threo-pentitol]
99 | 1.5 |  | CCc1ccc(Cc2cc3c(c4ccccc24)OCN([C@H]2COCC[C@@H]2O)C3=O)cn1 [Example 38, 1,5-anhydro-2,4-dideoxy-2-(6-((6-ethylpyridin-3-yl)methyl)-4-oxo-2H-naphtho[2,1-e][1,3]oxazin-3(4H)-yl)-L-threo-pentitol]
98 | 1.6 |  | Cc1ccc(Cc2cc3c(c4ccccc24)OCN([C@H]2CCC[C@@H]2O)C3=O)cn1 [Example 40, 3-((1S,2S)-2-hydroxycyclopentyl)-6-((6-methylpyridin-3-yl)methyl)-2,3-dihydro-4H-naphtho[2,1-e][1,3]oxazin-4-one]
124 | 2 |  | C=Cc1ccc(Cc2cc3c(c4ccccc24)OCN([C@H]2COCC[C@@H]2O)C3=O)cn1 [Example 42, 1,5-anhydro-2,4-dideoxy-2-(4-oxo-6-((6-vinylpyridin-3-yl)methyl)-2H-naphtho[2,1-e][1,3]oxazin-3(4H)-yl)-L-threo-pentitol]
93 | 2.4 |  | O=C1c2cc(Cc3ccc(Cl)nc3)c3ccccc3c2OCN1[C@H]1CCC[C@@H]1O [Example 43, 6-((6-chloropyridin-3-yl)methyl)-3-((1S,2S)-2-hydroxycyclopentyl)-2,3-dihydro-4H-naphtho[2,1-e][1,3]oxazin-4-one]
99 | 3.9 |  | Cc1c(Cc2ccc(C#N)cc2)cc2c(c1C)OCN([C@H]1CCC[C@@H]1O)C2=O [Example 44, 4-((3-((1S,2S)-2-hydroxycyclopentyl)-7,8-dimethyl-4-oxo-3,4-dihydro-2H-1,3-benzoxazin-6-yl)methyl)benzonitrile]
